The results in this text go back to patent US20190151312A1, “HEPARAN SULFATE BIOSYNTHESIS INHIBITORS FOR THE TREATMENT OF DISEASES” (BioMarin Pharmaceutical Inc., priority 2014, published 2019).

Where only a bound is given, the exact number is not on record here.

By IC50 is commonly meant the point on the concentration scale where inhibition reaches its midpoint.

One experiment concerns GM01896 cells (MPS II dermal fibroblasts). Nature of the experiment: Assay 1: MPS cellular assay, MPS II (heparan sulfate disaccharide biomarkers by LC-MS). The experiment is classed as cell-based, human. The note with it: Assay 1 for MPS II, heparan sulfate disaccharide biomarkers (I2a4, I2a6, I2S0 and/or I2S6), read-out: IC50 Range. The method in brief:
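MPS II patient dermal fibroblasts (GM01896) treated with compound at ≤30 μM for 4 to 21 days. Heparan sulfate GAGs isolated by anion exchange, digested with heparinases I-III, aniline-tagged against [13C6]aniline standards and quantified by LC-MS; IC50 from curve fitting. Viability monitored by alamar blue or ATP.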
Regarding `CN(C)C(=O)c1ccc(Nc2cc(-c3ccc4cnn(C)c4c3)nc(N3CCOCC3)n2)cc1` [N,N-dimethyl(4-{[6-(1-methyl(1H-indazol-6-yl))-2-morphlin-4-ylpyrimidin-4-yl]amino}phenyl)carboxamide], the IC50 fell in the range of 500 to 1000 nM.

The experiment is the same for the next values; noted with them: Homo sapiens, Fibroblast, Assay 1 for MPS II, heparan sulfate disaccharide biomarkers (I2a4, I2a6, I2S0 and/or I2S6), read-out: IC50 Range.
For `Cn1cnc2ccc(-c3cc(Nc4ccc(NS(C)(=O)=O)cc4)nc(N4CCOCC4)n3)cc21` [(4-{[6-(1-methylbenzimidazol-6-yl)-2-morpholin-4-ylpyrimidin-4-yl]amino}phenyl)(methylsulfonyl)amine], the IC50 was 1000 to 5000 nM. On the same count and under the same terms, with `CC(C)NC(=O)c1ccc(Nc2cc(-c3ccc4ncn(C)c4c3)nc(N3CCOCC3)n2)cc1` [(4-{[6-(1-methylbenzimidazol-6-yl)-2-morpholin-4-ylpyrimidin-4-yl]amino}phenyl)-N-(methylethyl)carboxamide] the figure was 1000 to 5000 nM; with `CNC(=O)c1ccc(Nc2cc(-c3ccc4cnn(C5CC5)c4c3)nc(N3CCOCC3)n2)cn1` [(5-{[6-(1-cyclopropyl(1H-indazol-6-yl))-2-morpholin-4-ylpyrimidin-4-yl]amino}(2-pyridyl))-N-methylcarboxamide], less than 500 nM; with `CNC(=O)c1ccc(Nc2cc(-c3ccc4ncn(C5CC5)c4c3)nc(N3CCOCC3)n2)cn1` [(5-{[6-(1-cyclopropylbenzimidazol-6-yl)-2-morpholin-4-ylpyrimidin-4-yl]amino}(2-pyridyl))-N-methylcarboxamide], 500 to 1000 nM. As to `Clc1ccc(Nc2cc(-c3ccc4nc[nH]c4c3)nc(N3CCOCC3)n2)cc1` [(6-benzimidazol-6-yl-2-morpholin-4-ylpyrimidin-4-yl)(4-chlorophenyl)amine], the 50% inhibitory concentration (IC50) fell in the range of 500 to 1000 nM. Same read-out and setting: under `CN(C)c1nn(C)c2cc(-c3cc(Nc4ccc(Cl)cc4)nc(N4CCOCC4)n3)ccc12` [(6-{6-[(4-chlorophenyl)amino]-2-morpholin-4-ylpyrimidin-4-yl}-1-methyl(1H-indazol-3-yl))dimethylamine] stands 1000 to 5000 nM; under `Cn1cnc2ccc(-c3cc(Nc4ccc(NC(=O)OC(C)(C)C)cc4)nc(N4CCOCC4)n3)cc21` [(tert-butoxy)-N-(4-{[6-(1-methylbenzimidazol-6-yl)-2-morpholin-4-ylpyrimidin-4-yl]amino}phenyl)carboxamide], 1000 to 5000 nM; under `Clc1ccc(Nc2cc(-c3cccc4[nH]ncc34)nc(N3CCOCC3)n2)cc1` [N-(4-chlorophenyl)-6-(1H-indazol-4-yl)-2-morpholinopyrimidin-4-amine], 500 to 1000 nM.

Take `Clc1ccc(Nc2cc(-c3ccc4[nH]ncc4c3)nc(N3CCOCC3)n2)cc1` [N-(4-chlorophenyl)-6-(1H-indazol-5-yl)-2-morpholinopyrimidin-4-amine]: the concentration for half-maximal inhibition (IC50) is 1000 to 5000 nM. Same read-out and setting: with `Clc1ccc(Nc2cc(-c3ccc4cn[nH]c4c3)nc(N3CCOCC3)n2)cc1` [N-(4-chlorophenyl)-6-(1H-indazol-6-yl)-2-morpholinopyrimidin-4-amine] the figure was 1000 to 5000 nM. Turning to `CC(=O)Nc1ccc(Nc2cc(-c3ccc4cnn(C)c4c3)nc(N3CCOCC3)n2)cc1` [N-(4-{[6-(1-methyl(1H-indazol-6-yl))-2-morpholin-4-ylpyrimidin-4-yl]amino}phenyl)acetamide], the half-maximal inhibitory concentration (IC50) was 500 to 1000 nM. As to `CC(=O)Nc1ccc(Nc2cc(-c3ccc4ncn(C)c4c3)nc(N3CCOCC3)n2)cc1` [N-(4-{[6-(1-methylbenzimidazol-6-yl)-2-morpholin-4-ylpyrimidin-4-yl]amino}phenyl)acetamide], the IC50 lay in the range of 500 to 1000 nM.

Turning to `Cn1cnc2ccc(-c3cc(Nc4ccc(C(=O)NCC5CC5)cc4)nc(N4CCOCC4)n3)cc21` [N-(cyclopropylmethyl)(4-{[6-(1-methylbenzimidazol-6-yl)-2-morpholin-4-ylpyrimidin-4-yl]amino}phenyl)carboxamide], the half-inhibitory concentration (IC50) was 500 to 1000 nM. For the compound `Cn1ncc2ccc(-c3cc(Nc4ccc(C(=O)NC5CC5)cc4)nc(N4CCOCC4)n3)cc21` [N-cyclopropyl(4-{[6-(1-methyl(1H-indazol-6-yl))-2-morpholin-4-ylpyrimidin-4-yl]amino}phenyl)carboxamide], the concentration for half-maximal inhibition (IC50) was 1000 to 5000 nM. On the same count and under the same terms, with `Cn1cnc2ccc(-c3cc(Nc4ccc(C(=O)NC5CC5)cc4)nc(N4CCOCC4)n3)cc21` [N-cyclopropyl(4-{[6-(1-methylbenzimidazol-6-yl)-2-morpholin-4-ylpyrimidin-4-yl]amino}phenyl)carboxamide] the figure was 1000 to 5000 nM; with `Cn1cnc2ccc(-c3cc(Nc4ccc(C(=O)NC5CC5)nc4)nc(N4CCOCC4)n3)cc21` [N-cyclopropyl(5-{[6-(1-methylbenzimidazol-6-yl)-2-morpholin-4-ylpyrimidin-4-yl]amino}(2-pyridyl))carboxamide], 500 to 1000 nM. The same measure, in the same setting: under `CCNC(=O)c1ccc(Nc2cc(-c3ccc4cnn(C)c4c3)nc(N3CCOCC3)n2)cc1` [N-ethyl(4-{[6-(1-methyl(1H-indazol-6-yl))-2-morpholin-4-ylpyrimidin-4-yl]amino}phenyl)carboxamide] stands 500 to 1000 nM. As for `CCNC(=O)c1ccc(Nc2cc(-c3ccc4ncn(C)c4c3)nc(N3CCOCC3)n2)cc1` [N-ethyl(4-{[6-(1-methylbenzimidazol-6-yl)-2-morpholin-4-ylpyrimidin-4-yl]amino}phenyl)carboxamide], the IC50 is 1000 to 5000 nM. Same read-out and setting: with `CNC(=O)c1ccc(Nc2cc(-c3ccc4c(cnn4C)c3)nc(N3CCOCC3)n2)cc1` [N-methyl(4-{[6-(1-methyl(1H-indazol-5-yl))-2-morpholin-4-ylpyrimidin-4-yl]amino}phenyl)carboxamide] the figure was 500 to 1000 nM.

For `CNC(=O)c1ccc(Nc2cc(-c3ccc4cnn(C)c4c3)nc(N3CCOCC3)n2)cc1` [N-methyl(4-{[6-(1-methyl(1H-indazol-6-yl))-2-morpholin-4-ylpyrimidin-4-yl]amino}phenyl)carboxamide], the IC50 is less than 500 nM. On the same count and under the same terms, under `CNC(=O)c1ccc(Nc2cc(-c3ccc4c(c3)ncn4C)nc(N3CCOCC3)n2)cc1` [N-methyl(4-{[6-(1-methylbenzimidazol-5-yl)-2-morpholin-4-ylpyrimidin-4-yl]amino}phenyl)carboxamide] stands less than 500 nM; under `CNC(=O)c1ccc(Nc2cc(-c3ccc4ncn(C)c4c3)nc(N3CCOCC3)n2)cc1` [N-methyl(4-{[6-(1-methylbenzimidazol-6-yl)-2-morpholin-4-ylpyrimidin-4-yl]amino}phenyl)carboxamide], less than 500 nM. On the same count and under the same terms, under `CNC(=O)c1ccc(Nc2cc(-c3ccc4c(cnn4C)c3)nc(N3CCOCC3)n2)cn1` [N-methyl(5-{[6-(1-methyl(1H-indazol-5-yl))-2-morpholin-4-ylpyrimidin-4-yl]amino}(2-pyridyl))carboxamide] stands 500 to 1000 nM; under `CNC(=O)c1ccc(Nc2cc(-c3ccc4cnn(C)c4c3)nc(N3CCOCC3)n2)cn1` [N-methyl(5-{[6-(1-methyl(1H-indazol-6-yl))-2-morpholin-4-ylpyrimidin-4-yl]amino}(2-pyridyl))carboxamide], 500 to 1000 nM. On the same count and under the same terms, under `CNC(=O)c1ccc(Nc2cc(-c3ccc4c(c3)ncn4C)nc(N3CCOCC3)n2)cn1` [N-methyl(5-{[6-(1-methylbenzimidazol-5-yl)-2-morpholin-4-ylpyrimidin-4-yl]amino}(2-pyridyl))carboxamide] stands 500 to 1000 nM; under `CNC(=O)c1ccc(Nc2cc(-c3ccc4ncn(C)c4c3)nc(N3CCOCC3)n2)cn1` [N-methyl(5-{[6-(1-methylbenzimidazol-6-yl)-2-morpholin-4-ylpyrimidin-4-yl]amino}(2-pyridyl))carboxamide], 500 to 1000 nM; under `CNC(=O)c1ccc(Nc2cc(-c3ccc4c(cnn4CCN4CCOCC4)c3)nc(N3CCOCC3)n2)cc1` [N-methyl[4-({2-morpholin-4-yl-6-[1-(2-morpholin-4-ylethyl)(1H-indazol-5-yl)]pyrimidin-4-yl}amino)phenyl]carboxamide], 500 to 1000 nM. As for `CNC(=O)c1ccc(Nc2cc(-c3ccc4cnn(CCN5CCOCC5)c4c3)nc(N3CCOCC3)n2)cc1` [N-methyl[4-({2-morpholin-4-yl-6-[1-(2-morpholin-4-ylethyl)(1H-indazol-6-yl)]pyrimidin-4-yl}amino)phenyl]carboxamide], the IC50 lay in the range of 500 to 1000 nM.

On to `CNC(=O)c1ccc(Nc2cc(-c3ccc4c(c3)ncn4CCN3CCOCC3)nc(N3CCOCC3)n2)cc1` [N-methyl[4-({2-morpholin-4-yl-6-[1-(2-morpholin-4-ylethyl)benzimidazol-5-yl]pyrimidin-4-yl}amino)phenyl]carboxamide], for which the IC50 lay in the range of 500 to 1000 nM.

Take `CNC(=O)c1ccc(Nc2cc(-c3ccc4ncn(CCN5CCOCC5)c4c3)nc(N3CCOCC3)n2)cc1` [N-methyl[4-({2-morpholin-4-yl-6-[1-(2-morpholin-4-ylethyl)benzimidazol-6-yl]pyrimidin-4-yl}amino)phenyl]carboxamide]: the concentration for half-maximal inhibition (IC50) lay in the range of 500 to 1000 nM.

Regarding `CNC(=O)c1ccc(Nc2cc(-c3ccc4cnn(CCN5CCCC5)c4c3)nc(N3CCOCC3)n2)cc1` [N-methyl[4-({2-morpholin-4-yl-6-[1-(2-pyrrolidinylethyl)(1H-indazol-6-yl)]pyrimidin-4-yl}amino)phenyl]carboxamide], the IC50 was 500 to 1000 nM.

As to `CNC(=O)c1ccc(Nc2cc(-c3ccc4ncn(CCN5CCCC5)c4c3)nc(N3CCOCC3)n2)cc1` [N-methyl[4-({2-morpholin-4-yl-6-[1-(2-pyrrolidinylethyl)benzimidazol-6-yl]pyrimidin-4-yl}amino)phenyl]carboxamide], the half-maximal inhibitory concentration (IC50) lay within 1000 to 5000 nM. As for `CNC(=O)c1ccc(Nc2cc(-c3ccc4c(cnn4CCCN4CCOCC4)c3)nc(N3CCOCC3)n2)cc1` [N-methyl[4-({2-morpholin-4-yl-6-[1-(3-morpholin-4-ylpropyl)(1H-indazol-5-yl)]pyrimidin-4-yl}amino)phenyl]carboxamide], the 50% inhibitory concentration (IC50) is 1000 to 5000 nM.

For the compound `CNC(=O)c1ccc(Nc2cc(-c3ccc4cnn(CCCN5CCOCC5)c4c3)nc(N3CCOCC3)n2)cc1` [N-methyl[4-({2-morpholin-4-yl-6-[1-(3-morpholin-4-ylpropyl)(1H-indazol-6-yl)]pyrimidin-4-yl}amino)phenyl]carboxamide], the IC50 is less than 500 nM.
